Laboratory results reported in ChEMBL document CHEMBL4052617, “Antibacterial activity of N-methylbenzofuro[3,2-b]quinoline and N-methylbenzoindolo[3,2-b]-quinoline derivatives and study of their mode of action” (2017).
Converted amounts (≈) assume the structure as drawn.

Assays:
Format in all cases: functional
Klebsiella pneumoniae = assay: Antibacterial activity against Klebsiella pneumoniae ATCC BAA2470 expressing NDM-1 beta-lactamase after 18 hrs by Mueller-Hinton broth microdilution method; details: ATCC BAA2470, 18 h
Escherichia coli [1] = assay: Antibacterial activity against Escherichia coli ATCC 25922 after 18 hrs by Mueller-Hinton broth microdilution method; details: ATCC 25922, 18 h
Enterococcus faecium [2] = assay: Antibacterial activity against antibiotic-susceptile Enterococcus faecium ATCC 49624 after 18 hrs by brain heart infusion broth microdilution method; details: ATCC 49624, 18 h
Staphylococcus aureus [3] = assay: Antibacterial activity against methicillin-resistant Staphylococcus aureus ATCC BAA41 after 18 hrs by cation adjusted Mueller-Hinton broth microdilution method; details: ATCC BAA41, 18 h
Staphylococcus aureus [4] = assay: Antibacterial activity against Staphylococcus aureus ATCC 29213 after 18 hrs by cation adjusted Mueller-Hinton broth microdilution method; details: ATCC 29213, 18 h
Bacillus subtilis = assay: Antibacterial activity against Bacillus subtilis 168 after 18 hrs by Mueller-Hinton broth microdilution method; details: subsp. subtilis str. 168, 18 h
Enterococcus faecium [5] = assay: Antibacterial activity against vancomycin-resistant Enterococcus faecium ATCC 700221 after 18 hrs by brain heart infusion broth microdilution method; details: ATCC 700221, 18 h
Pseudomonas aeruginosa = assay: Antibacterial activity against multidrug-resistant Pseudomonas aeruginosa ATCC BAA2108 after 18 hrs by Mueller-Hinton broth microdilution method; details: ATCC BAA2108, 18 h
Escherichia coli [6] = assay: Antibacterial activity against Escherichia coli ATCC […] expressing NDM-1 beta-lactamase after 18 hrs by Mueller-Hinton broth microdilution method

Row | Compound | MIC (Klebsiella pneumoniae) | MIC (Escherichia coli [1]) | MIC (Enterococcus faecium [2]) | MIC (Staphylococcus aureus [3]) | MIC (Staphylococcus aureus [4]) | MIC (Bacillus subtilis) | MIC (Enterococcus faecium [5]) | MIC (Pseudomonas aeruginosa) | MIC (Escherichia coli [6])
1 | COc1ccccc1Nc1c2ccccc2[n+](C)c2c1oc1ccccc12.[I-] | > 64 µg/mL | 12 µg/mL | 8 µg/mL | 6 µg/mL | 6 µg/mL | 6 µg/mL | 8 µg/mL | > 64 µg/mL | 12 µg/mL
2 | COc1ccccc1Nc1c2ccccc2[n+](C)c2c1[nH]c1ccccc12.[I-] | 64 µg/mL | 8 µg/mL | 8 µg/mL | 4 µg/mL | 4 µg/mL | 4 µg/mL | 8 µg/mL | 64 µg/mL | 8 µg/mL
3 | COc1cccc(Nc2c3ccccc3[n+](C)c3c2[nH]c2ccccc23)c1.[I-] | > 64 µg/mL | 8 µg/mL | 8 µg/mL | 4 µg/mL | 4 µg/mL | 4 µg/mL | 8 µg/mL | > 64 µg/mL | 8 µg/mL
4 | Cc1ccc(Nc2c3ccccc3[n+](C)c3c2[nH]c2ccccc23)cc1C.[I-] | > 64 µg/mL | 8 µg/mL | 8 µg/mL | 4 µg/mL | 4 µg/mL | 4 µg/mL | 8 µg/mL | > 64 µg/mL | 8 µg/mL
5 | COc1cccc(OC)c1C(=O)N[C@@H]1C(=O)N2[C@@H]1SC(C)(C)[C@@H]2C(=O)O [METHICILLIN] | > 192 µg/mL | 4 µg/mL (≈ 10.5 µM) | – | > 192 µg/mL | 1 µg/mL (≈ 2.63 µM) | 0.5 µg/mL (≈ 1.31 µM) | – | > 192 µg/mL | > 192 µg/mL
6 | CN[C@H](CC(C)C)C(=O)N[C@H]1C(=O)N[C@@H](CC(N)=O)C(=O)N[C@H]2C(=O)N[C@H]3C(=O)N[C@H](C(=O)N[C@H](C(=O)O)c4cc(O)cc(O)c4-c4cc3ccc4O)[C@H](O)c3ccc(c(Cl)c3)Oc3cc2cc(c3O[C@@H]2O[C@H](CO)[C@@H](O)[C@H](O)[C@H]2O[C@H]2C[C@](C)(N)[C@H](O)[C@H](C)O2)Oc2ccc(cc2Cl)[C@H]1O [VANCOMYCIN] | > 64 µg/mL | 2 µg/mL (≈ 1.38 µM) | – | – | – | 1 µg/mL (≈ 0.69 µM) | > 64 µg/mL | > 64 µg/mL | 6 µg/mL (≈ 4.14 µM)
7 | C[n+]1c2ccccc2c(Nc2ccccc2)c2oc3ccccc3c21.[I-] | > 64 µg/mL | 16 µg/mL | 12 µg/mL | 8 µg/mL | 8 µg/mL | 8 µg/mL | 12 µg/mL | > 64 µg/mL | 16 µg/mL
8 | C[n+]1c2ccccc2c(Nc2ccc(OC(F)(F)F)cc2)c2[nH]c3ccccc3c21.[I-] | 48 µg/mL | 6 µg/mL | 4 µg/mL | 2 µg/mL | 2 µg/mL | 2 µg/mL | 4 µg/mL | 48 µg/mL | 6 µg/mL
9 | C[n+]1c2ccccc2c(Nc2ccc(F)cc2)c2[nH]c3ccccc3c21.[I-] | 64 µg/mL | 8 µg/mL | 8 µg/mL | 4 µg/mL | 4 µg/mL | 4 µg/mL | 8 µg/mL | 64 µg/mL | 8 µg/mL
10 | Cc1cc(C)cc(Nc2c3ccccc3[n+](C)c3c2[nH]c2ccccc23)c1.[I-] | > 64 µg/mL | 8 µg/mL | 8 µg/mL | 4 µg/mL | 4 µg/mL | 4 µg/mL | 8 µg/mL | > 64 µg/mL | 8 µg/mL
11 | C[n+]1c2ccccc2c(Nc2ccc(F)cc2F)c2oc3ccccc3c21.[I-] | > 64 µg/mL | 12 µg/mL | 8 µg/mL | 6 µg/mL | 6 µg/mL | 6 µg/mL | 8 µg/mL | > 64 µg/mL | 12 µg/mL
12 | CCc1ccc(Nc2c3ccccc3[n+](C)c3c2oc2ccccc23)cc1.[I-] | > 64 µg/mL | 12 µg/mL | 8 µg/mL | 6 µg/mL | 6 µg/mL | 6 µg/mL | 8 µg/mL | > 64 µg/mL | 12 µg/mL
13 | C[n+]1c2ccccc2c(Nc2ccc(OC(F)(F)F)cc2)c2oc3ccccc3c21.[I-] | 64 µg/mL | 8 µg/mL | 6 µg/mL | 4 µg/mL | 4 µg/mL | 4 µg/mL | 6 µg/mL | 64 µg/mL | 8 µg/mL
14 | C[n+]1c2ccccc2c(Nc2ccccc2)c2[nH]c3ccccc3c21.[I-] | > 64 µg/mL | 12 µg/mL | 8 µg/mL | 6 µg/mL | 6 µg/mL | 6 µg/mL | 8 µg/mL | > 64 µg/mL | 12 µg/mL
15 | Cc1ccc(Nc2c3ccccc3[n+](C)c3c2[nH]c2ccccc23)cc1.[I-] | 64 µg/mL | 8 µg/mL | 6 µg/mL | 4 µg/mL | 4 µg/mL | 4 µg/mL | 6 µg/mL | 64 µg/mL | 8 µg/mL
16 | CCOc1ccc(Nc2c3ccccc3[n+](C)c3c2oc2ccccc23)cc1.[I-] | 64 µg/mL | 8 µg/mL | 8 µg/mL | 4 µg/mL | 4 µg/mL | 4 µg/mL | 8 µg/mL | 64 µg/mL | 8 µg/mL
17 | COc1ccc2cc3[n+](cc2c1OC)CCc1cc2c(cc1-3)OCO2.[Cl-] [BERBERINE CHLORIDE] | > 192 µg/mL | > 192 µg/mL | > 192 µg/mL | 192 µg/mL | 128 µg/mL | 128 µg/mL | > 192 µg/mL | > 192 µg/mL | > 192 µg/mL
18 | Cc1ccc(Nc2c3ccccc3[n+](C)c3c2oc2ccccc23)cc1F.[I-] | > 64 µg/mL | 12 µg/mL | 8 µg/mL | 6 µg/mL | 6 µg/mL | 6 µg/mL | 8 µg/mL | > 64 µg/mL | 12 µg/mL
19 | C[n+]1c2ccccc2c(Nc2cccc(F)c2)c2[nH]c3ccccc3c21.[I-] | > 64 µg/mL | 12 µg/mL | 6 µg/mL | 6 µg/mL | 6 µg/mL | 6 µg/mL | 6 µg/mL | > 64 µg/mL | 12 µg/mL
20 | Cc1ccc(Nc2c3ccccc3[n+](C)c3c2oc2ccccc23)cc1C.[I-] | > 64 µg/mL | 12 µg/mL | 8 µg/mL | 6 µg/mL | 6 µg/mL | 6 µg/mL | 8 µg/mL | > 64 µg/mL | 12 µg/mL
21 | CCOc1ccccc1Nc1c2ccccc2[n+](C)c2c1[nH]c1ccccc12.[I-] | 64 µg/mL | 8 µg/mL | 6 µg/mL | 4 µg/mL | 4 µg/mL | 4 µg/mL | 6 µg/mL | 64 µg/mL | 8 µg/mL
22 | CCc1ccc(Nc2c3ccccc3[n+](C)c3c2[nH]c2ccccc23)cc1.[I-] | 64 µg/mL | 8 µg/mL | 6 µg/mL | 4 µg/mL | 4 µg/mL | 4 µg/mL | 6 µg/mL | 64 µg/mL | 8 µg/mL
